Data reported in patent US8461289B2, “Bioresorbable polymers synthesized from monomer analogs of natural metabolites” (Rutgers, The State University of New Jersey, priority 2006, dated 2013).
In brackets after ≈: the same amount, converted by molar mass. Like-named read-outs stand apart in the source and are kept apart here.

Test: Determination of solubility of monomers in PBS (HPLC of filtrate against calibration curve)
Format: physicochemical
Conditions: monomer in PBS (pH 7.4), filtered; for solubility at 2 h: aqueous buffer, thermodynamic from solid
Method: About 30 mg of the monomer and 2 mL of PBS (pH 7.4) were added to a 2 dram vial. The vial was agitated on a vortex mixer for 2 h. If all the solid dissolved, more solid was added and agitation was continued. The mixture was filtered using a syringe filter to remove undissolved monomer. The clear filtrate was analyzed by HPLC by injecting 5 microliter of the filtrate. The area of the peak obtained was measured. A calibration curve was obtained by injecting known concentration of the monomer in methanol and plotting concentration against the area of the peaks obtained. Using this calibration curve the solubility of the monomer in PBS at ambient temperature was determined.
To determine the solubility at 37° C., the vials were placed in an incubator at 37° C. for 2 h. The mixture was then quickly filtered using syringe filter and then diluted 2× with PBS to prevent precipitation of the monomer. The solubility is determined using procedures similar to that used at room temperature solubility.

[1] = ambient temperature / 25° C., agitated 2 h

Row | SMILES | Solubility, mg/mL, 25° C. [1] | Solubility, mg/mL, 37° C. (incubator at 37° C. for 2 h, diluted 2× with PBS) | solubility at 2 h (ambient temperature / 25° C., agitated 2 h, read-out: Solubility, mg/mL, 25° C.) | solubility at 2 h (incubator at 37° C. for 2 h, diluted 2× with PBS, read-out: Solubility, mg/mL, 37° C.)
1 | CCOC(=O)[C@H](Cc1ccc(O)cc1)NC(=O)CCc1ccc(O)cc1 [DAT-tyrosine ethyl ester (DTE), DAT-tyrosine ethyl ester, reference compound] | 0.74 mg/mL (≈ 2.07 mM) | – | – | –
2 | CCOC(=O)C(Cc1c[nH]c2ccc(O)cc12)NC(=O)CCc1ccc(O)cc1 (stereo not shown) [DAT-5-hydroxytryptophan ethyl ester, DAT-5-Hydroxytryptophan Ethyl Ester] | 0.15 mg/mL (≈ 0.378 mM) | 0.43 mg/mL (≈ 1.08 mM) | – | –
3 | CCOC(=O)C(Cc1ccc(Oc2ccc(O)cc2)cc1)NC(=O)CCc1ccc(O)cc1 (stereo not shown) [DAT-Thyronine ethyl ester] | <0.05 mg/mL | – | – | –
4 | CCOC(=O)[C@H](CO)NC(=O)CCc1ccc(O)cc1 [DAT-serine ethyl ester, Desaminotyrosyl Serine Ethyl Ester] | – | – | 7.7 mg/mL (≈ 27.4 mM) | 14.1 mg/mL (≈ 50.2 mM)
5 | CCOC(=O)C1CC(O)CN1C(=O)CCc1ccc(O)cc1 (stereo not drawn) [DAT-trans-Hydroxyproline ethyl ester, DAT-Hydroxyproline Ethyl Ester] | 12 mg/mL (≈ 39 mM) | – | – | –
